Source: PubChem BioAssay (NCI)
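Compound exposure: 48 hours, 5 concentrations, 96-well plates. TGI: total growth inhibition.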

Columns and labels:
Experiment in all cases: NCI anticancer screen, dose series, 48 h
SN12C renal = system: SN12C renal
CAKI-1 renal = system: CAKI-1 renal
SW-620 colon = system: SW-620 colon
NCI-H522 lung = system: NCI-H522 lung
HL-60(TB) leukemia = system: HL-60(TB) leukemia
UACC-62 melanoma = system: UACC-62 melanoma
MALME-3M melanoma = system: MALME-3M melanoma
UACC-257 melanoma = system: UACC-257 melanoma
OVCAR-4 ovarian = system: OVCAR-4 ovarian
SF-268 CNS = system: SF-268 CNS
SNB-75 CNS = system: SNB-75 CNS
HOP-18 NSCLC = system: HOP-18 NSCLC
KM20L2 colon = system: KM20L2 colon
TK-10 renal = system: TK-10 renal
NCI-H460 lung = system: NCI-H460 lung
RPMI-8226 leukemia = system: RPMI-8226 leukemia
M14 melanoma = system: M14 melanoma
HT29 colon = system: HT29 colon
EKVX NSCLC = system: EKVX NSCLC
K-562 leukemia = system: K-562 leukemia
LOX IMVI melanoma = system: LOX IMVI melanoma
U251 CNS = system: U251 CNS
M19-MEL melanoma = system: M19-MEL melanoma
HCC-2998 colon = system: HCC-2998 colon
DMS 273 small cell lung = system: DMS 273 small cell lung
SK-MEL-2 melanoma = system: SK-MEL-2 melanoma
DLD-1 colon = system: DLD-1 colon
XF 498 CNS = system: XF 498 CNS
COLO 205 colon = system: COLO 205 colon
A549 NSCLC = system: A549 NSCLC
ACHN renal = system: ACHN renal
MOLT-4 leukemia = system: MOLT-4 leukemia
SNB-19 CNS = system: SNB-19 CNS
A498 renal = system: A498 renal
NCI-H226 lung = system: NCI-H226 lung
CCRF-CEM leukemia = system: CCRF-CEM leukemia
UO-31 renal = system: UO-31 renal
OVCAR-8 ovarian = system: OVCAR-8 ovarian
NCI-H23 lung = system: NCI-H23 lung
RXF 393 renal = system: RXF 393 renal
SF-295 CNS = system: SF-295 CNS
HCT-15 colon = system: HCT-15 colon
HOP-92 NSCLC = system: HOP-92 NSCLC
SK-OV-3 ovarian = system: SK-OV-3 ovarian
786-0 renal = system: 786-0 renal
SK-MEL-5 melanoma = system: SK-MEL-5 melanoma
LXFL 529 NSCLC = system: LXFL 529 NSCLC
IGROV1 ovarian = system: IGROV1 ovarian
SF-539 CNS = system: SF-539 CNS
OVCAR-3 ovarian = system: OVCAR-3 ovarian
OVCAR-5 ovarian = system: OVCAR-5 ovarian
KM12 colon = system: KM12 colon
SK-MEL-28 melanoma = system: SK-MEL-28 melanoma

Measured: TGI

Cc1ccccc1N(CC(=O)O)S(=O)(=O)c1ccccc1
> 100 µM: SN12C renal | CAKI-1 renal | SW-620 colon | NCI-H522 lung | HL-60(TB) leukemia | UACC-62 melanoma | MALME-3M melanoma | UACC-257 melanoma | OVCAR-4 ovarian | SF-268 CNS | SNB-75 CNS | HOP-18 NSCLC | KM20L2 colon | TK-10 renal | NCI-H460 lung | RPMI-8226 leukemia | M14 melanoma | HT29 colon | EKVX NSCLC | K-562 leukemia | LOX IMVI melanoma | U251 CNS | M19-MEL melanoma | HCC-2998 colon | DMS 273 small cell lung | SK-MEL-2 melanoma | DLD-1 colon | XF 498 CNS | COLO 205 colon | A549 NSCLC | ACHN renal | MOLT-4 leukemia | SNB-19 CNS | A498 renal | NCI-H226 lung | CCRF-CEM leukemia | UO-31 renal | OVCAR-8 ovarian | NCI-H23 lung | RXF 393 renal | SF-295 CNS | HCT-15 colon | HOP-92 NSCLC | SK-OV-3 ovarian | 786-0 renal | SK-MEL-5 melanoma | LXFL 529 NSCLC | IGROV1 ovarian | SF-539 CNS | OVCAR-3 ovarian | OVCAR-5 ovarian | KM12 colon | SK-MEL-28 melanoma
